From US20230287416A1, “COMBINATORY TREATMENT OF SMA WITH SARNA AND MRNA MODULATORS” (RACTIGEN THERAPEUTICS, priority 2020, published 2023) come the findings set out here.

Holding throughout (assay type): cell-based, human
Series [1] concerns SMN2 mRNA. The experiment in a line: RT-qPCR of SMN2FL and SMN2 Δ7 mRNA in GM00232 cells. To be noted: GM00232, 72 h.
In series [2] the test system is SMN2 mRNA. In words: Semi-quantitative RT-PCR (DdeI digestion) of SMN2FL and SMN2 Δ7 in GM03813 cells. Conditions: GM03813, 72 h. As to the method:
Seventy-two hours later, total cellular RNA was isolated from the treated cells and reverse transcribed into cDNA. SMN2 mRNA expression was assessed with RT-qPCR using primer pairs specific for SMN2FL or SMN2 Δ7. SMN2 mRNA expression was also assessed by semi-quantitative RT-PCR using a primer pair that amplifies both SMN2FL and SMN2 Δ7 followed by DdeI digestion (PCR/digestion). […] After digestion, both bands were reduced by 115 bp, resulting in two products: 392 bp (SMN2FL) and 338 bp (SMN2 Δ7) as shown on the gel of FIG. 3D. FIG. 3A-3D show dose-dependent changes in SMN2FL and SMNΔ7 mRNA as assessed by RT-qPCR and PCR/digestion respectively. FIG. 3E-3G are graphic plots of data from quantitating the intensity of bands in FIG. 3D.
(§1) SMA patient derived fibroblasts were obtained from Coriell Institute (Camden, N.J., USA), including GM00232 (SMA type I with 2 copies of SMN2 gene) and GM03813 (SMA type II with 3 copies of SMN2 gene). These cells were cultured at 5% C02 and 37° C. in modified MEM medium (Gibco, Thermo Fisher Scientific, Carlsbad, Calif.) supplemented with 15% bovine calf serum (Sigma-Aldrich), 1% NEAA (Gibco) and 1% penicillin/streptomycin (Gibco). To transfect oligonucleotides including saRNAs, siRNA and ASO, cells were seeded into 6-well plates at a density of 1×10^5 cells/well and were transfected with oligonucleotides at different concentrations using RNAiMax (Invitrogen, Carlsbad, Calif.) according to the reverse transfection protocol provided by the manufacturer for 72 hours (unless otherwise specified). For Risdiplam treatment of cells, Risdiplam (HY-109101, MedChem Express Company, Monmouth Junction, N.J., USA) dissolved in DMSO was added directly to cells at desired concentration for 72 hours unless specified otherwise.
To amplify both SMN2FL and SMN2 Δ7 in one reaction, cDNA was amplified by semi-quantitative RT-PCR using primers that spans exon 7 of SMN2 (Table 5) (FIG. 2). The PCR reaction conditions were: 94° C. for 2 minutes (1 cycle), 98° C. for 10 seconds, 60° C. for 15 seconds, 72° C. for 32 seconds, cycled for 30 time with a final 5 minutes extension at 72° C. To further differentiate SMN1 mRNA from SMN2, the resultant PCR products of SMN were digested by DdeI restriction enzyme (R0175L, NEB) and then separated by 2% agarose gel. Due to a nucleotide variant on […] of SMN2, a DdeI recognition site exists in PCR products amplified from SMN2 gene but not from SMN1 gene, DdeI digestion releases a 115 bp fragment from both SMN2FL and SMN2 Δ7, resulting […]: 507 (SMN1FL), 338 (SMN2 Δ7), 392 (SMN2FL) and 115 bp (FIG. 2). TBP gene was also amplified as a RNA loading control. The DdeI digestion reaction conditions were: 37° C. for 60 minutes and 65° C. for 20 minutes, 1cycle.

The subject of series [3] is SMN2 mRNA. In words: Semi-quantitative RT-PCR/DdeI digestion of SMN2FL and SMN2 Δ7 in GM00232 cells. To be noted: GM00232, 72 h. As to the method: (§2) To determine whether the combination of saRNA (DS06-0004) and ASO-10-27 has an enhanced effect on SMN2FL induction in type I SMA cells, GM00232 cells were transfected with DS06-0004 and ASO-10-27 alone or in combination at different concentrations for 72 hours. SMN2 expression was assessed in the treated cells by RT-qPCR (FIGS. 4A and 4D) and PCR/digestion (FIGS. 4B, 4C and 4E).
as §1, with “For Risdiplam treatment of cells, Risdiplam (HY-109101, MedChem Express Company, Monmouth Junction, N.J., USA) dissolved in DMSO was added directly to cells at desired concentration for 72 hours unless specified otherwise.” left out
To amplify both SMN2FL and SMN2 Δ7 in one reaction, cDNA was amplified by semi-quantitative RT-PCR using primers that spans exon 7 of SMN2 (Table 5) (FIG. 2). […]

In series [4] the test system is SMN2 mRNA. In words: RT-qPCR of SMN2FL and SMN2 Δ7 mRNA in GM00232 cells. To be noted: GM00232, 72 h. As to the method: as §2
“GM00232 cells” refers to fibroblast cells provided by Coriell Institute for Medical Research. This cell line is described as SPINAL MUSCULAR ATROPHY I; SMA1. The donor subject has 2 copies of the SMN2 gene (data from several sources including Stabley et al. 2015, PMID 26247043) and is homozygous for deletion of exons 7 and 8 of the SMN1 gene. The relevant gene is SMN1; the chromosomal location is 5q12.2-q13.3, the allelic variant is described as exons 7 and 8 deleted; SPINAL MUSCULAR ATROPHY, TYPE I; and the identified mutation: is EX7-8DEL. The phenotype data derived from a fibroblast from skin (arm) of the following subject characterized as: Progressive muscular atrophy; absent deep tendon reflexes; abnormal EMG; donor subject has 2 copies of the SMN2 gene (data from several sources including Stabley et al. 2015, PMID 26247043) and is homozygous for deletion of exons 7 and 8 of the SMN1 gene.
as §1
For RNA isolation from cultured cells, total cellular RNA was isolated from treated cells using an RNeasy Plus Mini kit (Qiagen, Hilden, Germany) according to its manual. To isolated RNA from animal tissues, tissues were harvested and stored at RNA later (AM7021, Thermo Fisher). Total RNA was then isolated using MagPure Total RNA Micro LQ kit (Magen, R6621, China) by auto-pure96 machine (ALLSHENG, China). The resultant RNA (1 μg) was reverse transcribed into cDNA by using a PrimeScript RT kit containing gDNA Eraser (Takara, Shlga, Japan). The resultant cDNA was amplified in an ABI 7500 Fast Real-time PCR System (Applied Biosystems; Foster City, Calif.) using SYBR Premix Ex Taq 11 (Takara, Shlga, Japan) reagents and primers which specifically amplified full-length (SMN2FL) or A7 SMN2 mRNA (SMN2 Δ7) (FIG. 1). The reaction conditions were: 95° C. for 3 seconds (1 cycle) and 60° C. for 30 seconds (40 cycles). Amplification of TBP gene served as an internal control.
The source holds these as a separate data set.

Setting [5] is: PCR/digestion (Example 1, FIG. 3E).

On to `Cc1cn2nc(-c3cc(=O)n4cc(N5CCNC6(CC6)C5)ccc4n3)cc(C)c2n1` [Risdiplam], for which the “SMN2FL mRNA fold change” value in series [1] (50 nM (Example 6, FIG. 8A-8C)) turned out to be 1.2 fold; in series [1] (250 nM (Example 6)) it was 1.8 fold; in series [1] (1250 nM (Example 6)), 1.9 fold; in series [2] (1250 nM, PCR/DdeI digestion (Example 8, FIG. 10D-10F)), 2.1 fold; in series [3] (1250 nM, PCR/DdeI digestion (Example 6, FIG. 8D-8F)), 2.3 fold. Moreover, the “SMN2 Δ7 mRNA change” value in series [1] (50 nM, 250 nM and 1250 nM (Example 6)) is “decrease”.
With “DS06-0004: saRNA targeting SMN2 promoter at -281; SEQ ID NO: 476/477 (Table 8: SEQ ID NO: 131/288) (chain 1 AGACGAGGCCUAAGCAACATT; chain 2 UGUUGCUUAGGCCUCGUCUTT; chemistry not given here)”, the “SMN2FL mRNA fold change” value came out at 1.8 fold in series [1] (1 nM (Example 6)); 2.1 fold in series [1] (5 nM (Example 6)); 2.0 fold in series [1] (25 nM (Example 6)); 1.7 fold in series [4] (1 nM (Example 2, FIG. 4A)); 2.4 fold in series [4] (5 nM (Example 2)); 2.4 fold in series [4] (25 nM (Example 2)). Further, the “SMN2 Δ7 mRNA fold change” value is 1.6 fold in series [1] (1 nM (Example 6)); 1.6 fold in series [1] (5 nM (Example 6)); 2.1 fold in series [1] (25 nM (Example 2)); 1.7 fold in series [1] (25 nM (Example 6)); 1.5 fold in series [4] (1 nM (Example 2)); 1.9 fold in series [4] (5 nM (Example 2)).
Nusinersen [ASO-10-27]: the “SMN2FL mRNA fold change” value worked out at 2.1 fold in series [2] (25 nM, semi-quantitative RT-PCR/DdeI digestion (Example 4, FIG. 6B-6C)); 1.4 fold in series [2] (alone or in combination at 10 nM, semi-quantitative RT-PCR (Example 10, FIG. 12B-12C)); 1.3 fold in series [4] (1 nM (Example 2, FIG. 4A)); 1.8 fold in series [4] (5 nM (Example 2)); 1.9 fold in series [4] (25 nM (Example 2)); 2.3 fold in series [3] (25 nM, PCR/DdeI digestion (Example 2, FIG. 4B-4C)). Also, the “concentration at which expression of SMN2FL reached its peak” value in series [2] (setting [5]) is recorded as 10 nM. Further, the “concentration at which expression of SMNΔ7 almost approached the lowest value” in series [2] (setting [5]) is 5 nM. The “SMN2 Δ7 mRNA change” value in series [4] (1 nM, 5 nM and 25 nM (Example 2)) is “decrease”.
